biological target: Helios (Homo sapiens, UniProt Q96SW2+Q9UKS7); assay: Helios Human T Regulatory Cells Degradation Assay; type: cell-based; parameters: fluorescently labelled antibodies against Helios in 1× Permeabilization buffer; endogenous in cells; host or cells: cryopreserved human T regulatory cells; conditions: cryopreserved human T regulatory cells, incubated 20 hours, Helios-APC antibody staining, flow cytometry; read-out: hTreg Helios DC50
Method in brief: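 Cryopreserved human Treg cells thawed in RPMI+10% FBS+20 ng/mL IL-2, rested 3 h, then incubated with compound 20 hours at 37° C, 5% CO2. Near-IR viability stain, permeabilization, flow cytometry read-out.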

Sequence of Helios (Q9UKS7 whole entry): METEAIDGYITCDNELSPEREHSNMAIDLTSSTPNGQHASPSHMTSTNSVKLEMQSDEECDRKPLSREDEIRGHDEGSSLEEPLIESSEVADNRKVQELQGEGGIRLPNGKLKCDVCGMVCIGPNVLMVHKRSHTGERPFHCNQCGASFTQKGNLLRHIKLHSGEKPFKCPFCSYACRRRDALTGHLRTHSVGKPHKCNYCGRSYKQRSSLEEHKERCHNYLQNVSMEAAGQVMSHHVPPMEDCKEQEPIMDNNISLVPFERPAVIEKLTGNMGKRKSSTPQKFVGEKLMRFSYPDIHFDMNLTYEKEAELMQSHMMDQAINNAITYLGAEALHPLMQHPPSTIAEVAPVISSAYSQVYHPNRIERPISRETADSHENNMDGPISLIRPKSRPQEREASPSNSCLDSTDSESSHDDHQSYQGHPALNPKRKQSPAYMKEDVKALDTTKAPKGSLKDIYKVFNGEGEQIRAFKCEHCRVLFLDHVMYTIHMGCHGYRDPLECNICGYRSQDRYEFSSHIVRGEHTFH
Sequence of Helios (Q96SW2 whole entry): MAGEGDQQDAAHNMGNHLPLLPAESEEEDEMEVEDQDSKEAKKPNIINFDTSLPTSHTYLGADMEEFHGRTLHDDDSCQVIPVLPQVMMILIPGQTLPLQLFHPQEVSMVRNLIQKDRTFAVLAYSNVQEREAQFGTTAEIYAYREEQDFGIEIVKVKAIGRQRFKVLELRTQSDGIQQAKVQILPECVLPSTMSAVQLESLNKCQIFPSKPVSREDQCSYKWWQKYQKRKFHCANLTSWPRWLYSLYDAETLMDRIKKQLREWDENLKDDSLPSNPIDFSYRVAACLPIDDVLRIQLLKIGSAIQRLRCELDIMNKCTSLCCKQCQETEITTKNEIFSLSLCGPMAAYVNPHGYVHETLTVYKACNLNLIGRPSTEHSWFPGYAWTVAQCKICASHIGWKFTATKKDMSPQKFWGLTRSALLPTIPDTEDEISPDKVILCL
Sequence of Helios (Q16531 whole entry partner): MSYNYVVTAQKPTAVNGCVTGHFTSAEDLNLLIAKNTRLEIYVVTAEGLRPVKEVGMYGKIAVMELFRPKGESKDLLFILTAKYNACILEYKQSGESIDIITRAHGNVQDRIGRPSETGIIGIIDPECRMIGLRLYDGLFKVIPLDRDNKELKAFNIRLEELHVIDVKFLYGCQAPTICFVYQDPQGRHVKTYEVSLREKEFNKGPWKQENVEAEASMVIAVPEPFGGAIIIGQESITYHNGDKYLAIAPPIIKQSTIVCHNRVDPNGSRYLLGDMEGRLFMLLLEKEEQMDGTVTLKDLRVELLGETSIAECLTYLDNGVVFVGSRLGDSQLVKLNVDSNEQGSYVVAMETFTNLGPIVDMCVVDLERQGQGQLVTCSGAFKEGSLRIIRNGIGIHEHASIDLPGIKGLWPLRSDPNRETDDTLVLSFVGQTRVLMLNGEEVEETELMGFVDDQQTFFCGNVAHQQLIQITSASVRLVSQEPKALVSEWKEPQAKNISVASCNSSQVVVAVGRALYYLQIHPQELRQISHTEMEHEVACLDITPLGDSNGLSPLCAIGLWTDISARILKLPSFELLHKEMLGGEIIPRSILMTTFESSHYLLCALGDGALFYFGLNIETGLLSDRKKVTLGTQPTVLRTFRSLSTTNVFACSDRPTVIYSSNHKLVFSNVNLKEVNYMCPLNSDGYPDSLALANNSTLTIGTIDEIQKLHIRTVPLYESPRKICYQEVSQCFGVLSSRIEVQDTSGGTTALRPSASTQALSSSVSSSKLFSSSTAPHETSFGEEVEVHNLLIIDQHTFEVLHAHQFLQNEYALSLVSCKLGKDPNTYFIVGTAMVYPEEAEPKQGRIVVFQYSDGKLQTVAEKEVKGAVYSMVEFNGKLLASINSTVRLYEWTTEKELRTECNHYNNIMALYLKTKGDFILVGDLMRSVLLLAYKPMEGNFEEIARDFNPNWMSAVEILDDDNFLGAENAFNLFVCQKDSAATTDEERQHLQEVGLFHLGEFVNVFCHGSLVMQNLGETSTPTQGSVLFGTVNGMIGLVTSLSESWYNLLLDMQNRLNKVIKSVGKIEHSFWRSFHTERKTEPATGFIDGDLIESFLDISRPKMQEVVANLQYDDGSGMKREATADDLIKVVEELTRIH

For `O=C1CCC(N2Cc3cc(-c4nccc(CN5CCC(O)(C(F)(F)F)CC5)c4F)ccc3C2=O)C(=O)N1` (centres unmarked) [Example 209, 3-(5-(3-fluoro-4-((4-hydroxy-4-(trifluoromethyl)piperidin-1-yl)methyl)pyridin-2-yl)-1-oxoisoindolin-2-yl)piperidine-2,6-dione], which DC50 is on record?
Its DC50 is ≥ 10000 nM.

Which DC50 does the source give for `CC(C)(C)OC(=O)N1CCCC12CCN(Cc1ccnc(-c3ccc4c(c3)CN(C3CCC(=O)NC3=O)C4=O)c1F)C2` (centres unmarked) [Example 213, tert-butyl 7-((2-(2-(2,6-dioxopiperidin-3-yl)-1-oxoisoindolin-5-yl)-3-fluoropyridin-4-yl)methyl)-1,7-diazaspiro[4.4]nonane-1-carboxylate] here?
The DC50 was ≥ 10000 nM.

For `CC(C)(C)OC(=O)N1CCC12CCCN(Cc1ccnc(-c3ccc4c(c3)CN(C3CCC(=O)NC3=O)C4=O)c1F)C2` (centres unmarked) [Example 216, tert-butyl 6-((2-(2-(2,6-dioxopiperidin-3-yl)-1-oxoisoindolin-5-yl)-3-fluoropyridin-4-yl)methyl)-1,6-diazaspiro[3.5]nonane-1-carboxylate], which DC50 is on record?
Its DC50 is ≥ 10000 nM.

With `C[C@@](O)(c1ccccc1)[C@H]1CCCN1Cc1ccnc(-c2ccc3c(c2)CN(C2CCC(=O)NC2=O)C3=O)c1F` (stereo partly drawn) [Example 217, 3-(5-(3-fluoro-4-(((R)-2-((R)-1-hydroxy-1-phenylethyl)pyrrolidin-1-yl)methyl)pyridin-2-yl)-1-oxoisoindolin-2-yl)piperidine-2,6-dione] as the molecule, how does the DC50 read?
The DC50 was 390 nM.

Which DC50 does the source give for `C[C@](O)(c1ccccc1)[C@H]1CCCN1Cc1ccnc(-c2ccc3c(c2)CN(C2CCC(=O)NC2=O)C3=O)c1F` (stereo partly drawn) [Example 218, 3-(5-(3-fluoro-4-(((R)-2-((S)-1-hydroxy-1-phenylethyl)pyrrolidin-1-yl)methyl)pyridin-2-yl)-1-oxoisoindolin-2-yl)piperidine-2,6-dione] here?
Its DC50 is 4130 nM.

For `O=C1CCC(N2Cc3cc(-c4nccc(CN5CC6CC(C5)C6O)c4F)ccc3C2=O)C(=O)N1` (centres unmarked) [Example 219, 3-(5-(3-fluoro-4-((6-hydroxy-3-azabicyclo[3.1.1]heptan-3-yl)methyl)pyridin-2-yl)-1-oxoisoindolin-2-yl)piperidine-2,6-dione], which DC50 is on record?
The DC50 was 9.8 nM.

Which DC50 does the source give for `CC1(O)CCCN(Cc2ccnc(-c3ccc4c(c3)CN(C3CCC(=O)NC3=O)C4=O)c2F)CC1` (centres unmarked) [Example 220, 3-(5-(3-fluoro-4-((4-hydroxy-4-methylazepan-1-yl)methyl)pyridin-2-yl)-1-oxoisoindolin-2-yl)piperidine-2,6-dione] here?
Its DC50 is 34.2 nM.

How did the DC50 turn out when `CC1(C)CN(Cc2ccnc(-c3ccc4c(c3)CN(C3CCC(=O)NC3=O)C4=O)c2F)CCC1O` (centres unmarked) [Example 221, 3-(5-(3-fluoro-4-((4-hydroxy-3,3-dimethylpiperidin-1-yl)methyl)pyridin-2-yl)-1-oxoisoindolin-2-yl)piperidine-2,6-dione] was run?
The DC50 was 13900 nM.

`O=C1CCC(N2Cc3cc(-c4nccc(CN5CCC6(CC5)CC(O)CO6)c4F)ccc3C2=O)C(=O)N1` (centres unmarked) [Example 222, 3-(5-(3-fluoro-4-((3-hydroxy-1-oxa-8-azaspiro[4.5]decan-8-yl)methyl)pyridin-2-yl)-1-oxoisoindolin-2-yl)piperidine-2,6-dione] was tested. Which DC50 did it give?
The DC50 was 2760 nM.

How did the DC50 turn out when `CC1(O)CN(Cc2ccnc(-c3ccc4c(c3)CN(C3CCC(=O)NC3=O)C4=O)c2F)C1` (centres unmarked) [Example 224, 3-(5-(3-fluoro-4-((3-hydroxy-3-methylazetidin-1-yl)methyl)pyridin-2-yl)-1-oxoisoindolin-2-yl)piperidine-2,6-dione] was run?
The DC50 was 72.9 nM.

How did the DC50 turn out when `O=C1CCC(N2Cc3cc(-c4nccc(CN5CCC6(CC5)CC(O)C6)c4F)ccc3C2=O)C(=O)N1` (centres unmarked) [Example 225, 3-(5-(3-fluoro-4-((2-hydroxy-7-azaspiro[3.5]nonan-7-yl)methyl)pyridin-2-yl)-1-oxoisoindolin-2-yl)piperidine-2,6-dione] was run?
Its DC50 is 29.3 nM.

For `O=C1CCC(N2Cc3cc(-c4nccc(CN5CCC(O)CC5)c4F)ccc3C2=O)C(=O)N1` (centres unmarked) [Example 226, 3-(5-(3-fluoro-4-((4-hydroxypiperidin-1-yl)methyl)pyridin-2-yl)-1-oxoisoindolin-2-yl)piperidine-2,6-dione], which DC50 is on record?
The DC50 was 51.5 nM.

How did the DC50 turn out when `CC(=O)N1CC2CCC(C1)N2Cc1ccnc(-c2ccc3c(c2)CN(C2CCC(=O)NC2=O)C3=O)c1F` (centres unmarked) [Example 227, 3-(5-(4-((3-acetyl-3,8-diazabicyclo[3.2.1]octan-8-yl)methyl)-3-fluoropyridin-2-yl)-1-oxoisoindolin-2-yl)piperidine-2,6-dione] was run?
Its DC50 is ≥ 10000 nM.

With `C[C@@H]1CN(Cc2ccnc(-c3ccc4c(c3)CN(C3CCC(=O)NC3=O)C4=O)c2F)C[C@H]1O` (stereo partly drawn) [Example 232, 3-(5-(3-fluoro-4-(((3S,4R)-3-hydroxy-4-methylpyrrolidin-1-yl)methyl)pyridin-2-yl)-1-oxoisoindolin-2-yl)piperidine-2,6-dione] as the molecule, how does the DC50 read?
The DC50 was 38.6 nM.

With `O=C1CCC(N2Cc3cc(-c4nccc(CN5CCC(O)(c6ccc(F)cc6)C5)c4F)ccc3C2=O)C(=O)N1` (centres unmarked) [Example 234, 3-(5-(3-fluoro-4-((3-(4-fluorophenyl)-3-hydroxypyrrolidin-1-yl)methyl)pyridin-2-yl)-1-oxoisoindolin-2-yl)piperidine-2,6-dione] as the molecule, how does the DC50 read?
Its DC50 is 8410 nM.

`O=C1CCC(N2Cc3cc(-c4nccc(CN5CCC(O)(Cc6ccccc6)CC5)c4F)ccc3C2=O)C(=O)N1` (centres unmarked) [Example 235, 3-(5-(4-((4-benzyl-4-hydroxypiperidin-1-yl)methyl)-3-fluoropyridin-2-yl)-1-oxoisoindolin-2-yl)piperidine-2,6-dione] was tested. Which DC50 did it give?
Its DC50 is 330 nM.

How did the DC50 turn out when `CC(C)(C)OC(=O)N[C@H]1C[C@H](F)CN(Cc2ccnc(-c3ccc4c(c3)CN(C3CCC(=O)NC3=O)C4=O)c2F)C1` (stereo partly drawn) [Example 236, tert-butyl ((3S,5S)-1-((2-(2-(2,6-dioxopiperidin-3-yl)-1-oxoisoindolin-5-yl)-3-fluoropyridin-4-yl)methyl)-5-fluoropiperidin-3-yl)carbamate] was run?
The DC50 was ≥ 10000 nM.

For `CC1CC(O)(c2ccc(F)cc2)CN1Cc1ccnc(-c2ccc3c(c2)CN(C2CCC(=O)NC2=O)C3=O)c1F` (centres unmarked) [Example 237, 3-(5-(3-fluoro-4-((4-(4-fluorophenyl)-4-hydroxy-2-methylpyrrolidin-1-yl)methyl)pyridin-2-yl)-1-oxoisoindolin-2-yl)piperidine-2,6-dione], which DC50 is on record?
The DC50 was ≥ 10000 nM.

For `O=C1CCC(N2Cc3cc(-c4nccc(CN5CCC(O)(c6ccccc6Cl)C5)c4F)ccc3C2=O)C(=O)N1` (centres unmarked) [Example 238, 3-(5-(4-((3-(2-chlorophenyl)-3-hydroxypyrrolidin-1-yl)methyl)-3-fluoropyridin-2-yl)-1-oxoisoindolin-2-yl)piperidine-2,6-dione], which DC50 is on record?
Its DC50 is 172 nM.

With `Cc1cc(C2CCCN2Cc2ccnc(-c3ccc4c(c3)CN(C3CCC(=O)NC3=O)C4=O)c2F)on1` (centres unmarked) [Example 244, 3-(5-(3-fluoro-4-((2-(3-methylisoxazol-5-yl)pyrrolidin-1-yl)methyl)pyridin-2-yl)-1-oxoisoindolin-2-yl)piperidine-2,6-dione] as the molecule, how does the DC50 read?
The DC50 was 242 nM.

How did the DC50 turn out when `COC(=O)N[C@H]1CN(Cc2ccnc(-c3ccc4c(c3)CN(C3CCC(=O)NC3=O)C4=O)c2F)C[C@@H]1O` (stereo partly drawn) [Example 248, methyl ((3S,4S)-1-((2-(2-(2,6-dioxopiperidin-3-yl)-1-oxoisoindolin-5-yl)-3-fluoropyridin-4-yl)methyl)-4-hydroxypyrrolidin-3-yl)carbamate] was run?
The DC50 was ≥ 10000 nM.

Which DC50 does the source give for `O=C1CCC(N2Cc3cc(-c4nccc(CN5CCC6(CC5)OCc5ccccc56)c4F)ccc3C2=O)C(=O)N1` (centres unmarked) [Example 249, 3-(5-(4-((3H-spiro[isobenzofuran-1,4′-piperidin]-1′-yl)methyl)-3-fluoropyridin-2-yl)-1-oxoisoindolin-2-yl)piperidine-2,6-dione] here?
The DC50 was ≥ 10000 nM.

Which DC50 does the source give for `O=C1CCC(N2Cc3cc(-c4nccc(CN5CCCC(O)(c6ccccc6)C5)c4F)ccc3C2=O)C(=O)N1` (centres unmarked) [Example 250, 3-(5-(3-fluoro-4-((3-hydroxy-3-phenylpiperidin-1-yl)methyl)pyridin-2-yl)-1-oxoisoindolin-2-yl)piperidine-2,6-dione] here?
The DC50 was ≥ 10000 nM.

`CC(=O)N1CC2(CCN(Cc3ccnc(-c4ccc5c(c4)CN(C4CCC(=O)NC4=O)C5=O)c3F)CC2)C1` (centres unmarked) [Example 251, 3-(5-(4-((2-acetyl-2,7-diazaspiro[3.5]nonan-7-yl)methyl)-3-fluoropyridin-2-yl)-1-oxoisoindolin-2-yl)piperidine-2,6-dione] was tested. Which DC50 did it give?
The DC50 was ≥ 10000 nM.

How did the DC50 turn out when `COC(=O)N1CC2(CCN(Cc3ccnc(-c4ccc5c(c4)CN(C4CCC(=O)NC4=O)C5=O)c3F)CC2)C1` (centres unmarked) [Example 252, methyl 7-((2-(2-(2,6-dioxopiperidin-3-yl)-1-oxoisoindolin-5-yl)-3-fluoropyridin-4-yl)methyl)-2,7-diazaspiro[3.5]nonane-2-carboxylate] was run?
The DC50 was ≥ 10000 nM.

How did the DC50 turn out when `O=C1CCC(N2Cc3cc(-c4nccc(CN5CCCC(F)(c6ccccc6)C5)c4F)ccc3C2=O)C(=O)N1` (centres unmarked) [Example 253, 3-(5-(3-fluoro-4-((3-fluoro-3-phenylpiperidin-1-yl)methyl)pyridin-2-yl)-1-oxoisoindolin-2-yl)piperidine-2,6-dione] was run?
Its DC50 is ≥ 10000 nM.

With `O=C1CCC(N2Cc3cc(-c4nccc(CN5CCc6[nH]ncc6C5)c4F)ccc3C2=O)C(=O)N1` (centres unmarked) [Example 254, 3-(5-(3-fluoro-4-((1,4,6,7-tetrahydro-5H-pyrazolo[4,3-c]pyridin-5-yl)methyl)pyridin-2-yl)-1-oxoisoindolin-2-yl) piperidine-2,6-dione] as the molecule, how does the DC50 read?
The DC50 was ≥ 10000 nM.

Which DC50 does the source give for `CC1(O)CC2CN(Cc3ccnc(-c4ccc5c(c4)CN(C4CCC(=O)NC4=O)C5=O)c3F)CC2C1` (centres unmarked) [Example 255, 3-(5-(3-fluoro-4-((5-hydroxy-5-methylhexahydrocyclopenta[c]pyrrol-2(1H)-yl)methyl)pyridin-2-yl)-1-oxoisoindolin-2-yl)piperidine-2,6-dione] here?
The DC50 was 492 nM.

How did the DC50 turn out when `Cc1ccc(C)c(C2(O)CCN(Cc3ccnc(-c4ccc5c(c4)CN(C4CCC(=O)NC4=O)C5=O)c3F)C2)c1` (centres unmarked) [Example 256, 3-(5-(4-((3-(2,5-dimethylphenyl)-3-hydroxypyrrolidin-1-yl)methyl)-3-fluoropyridin-2-yl)-1-oxoisoindolin-2-yl)piperidine-2,6-dione] was run?
Its DC50 is 1140 nM.

From patent publication US20250346574A1, “PYRIDINYL SUBSTITUTED OXOISOINDOLINE COMPOUNDS FOR THE TREATMENT OF CANCER” (Bristol-Myers Squibb Company, priority 2021, published 2025)
